Measured values from the NIST ThermoML archive (doi:10.1016/j.jct.2018.12.021).

Experiment: mn = molality of the nth substance listed, in mol/kg
Conditions: for electrical conductivity / mass density: 100 kPa, Liquid; for electrical conductivity: Direct current cell with electrodes; for mass density: Vibrating tube method; for surface tension liquid-gas: Ring tensiometer

CCCCCCCCCCCC[n+]1ccsc1.[Br-] [N-dodecylthiazolium bromide] + O
Conditions	electrical conductivity [S/m]	mass density [kg/m3]	surface tension liquid-gas [mN/m]
293.15 K, m1 = 0.00122	–	998.24	–
293.15 K, m1 = 0.00157	0.0131	998.27	–
293.15 K, m1 = 0.00191	–	998.29	–
293.15 K, m1 = 0.00201	0.017	998.3	–
293.15 K, m1 = 0.00258	–	998.33	–
293.15 K, m1 = 0.00299	0.0246	998.36	–
293.15 K, m1 = 0.00326	–	998.38	–
293.15 K, m1 = 0.00407	0.033	998.43	–
293.15 K, m1 = 0.00429	–	998.45	–
293.15 K, m1 = 0.00507	0.0421	998.5	–
293.15 K, m1 = 0.00548	–	998.53	–
293.15 K, m1 = 0.00602	0.0483	998.57	–
293.15 K, m1 = 0.00698	0.0568	998.64	–
293.15 K, m1 = 0.00753	0.0603	998.68	–
293.15 K, m1 = 0.00905	0.0699	998.78	–
293.15 K, m1 = 0.01006	0.0754	998.85	–
293.15 K, m1 = 0.01266	0.0892	999.01	–
293.15 K, m1 = 0.01513	0.0958	999.17	–
293.15 K, m1 = 0.01771	0.103	999.33	–
293.15 K, m1 = 0.01974	0.107	999.46	–
293.15 K, m1 = 0.02301	0.116	999.66	–
293.15 K, m1 = 0.02601	0.123	999.84	–
298.15 K, m1 = 0.00122	–	997.08	–
298.15 K, m1 = 0.00157	0.0147	997.1	–
298.15 K, m1 = 0.00191	–	997.12	–
298.15 K, m1 = 0.00201	0.0189	997.13	–
298.15 K, m1 = 0.00258	–	997.16	–
298.15 K, m1 = 0.00299	0.0276	997.19	–
298.15 K, m1 = 0.00326	–	997.21	–
298.15 K, m1 = 0.00407	0.0365	997.26	–
298.15 K, m1 = 0.00429	–	997.28	–
298.15 K, m1 = 0.00507	0.0469	997.33	–
298.15 K, m1 = 0.00548	–	997.36	–
298.15 K, m1 = 0.00602	0.0535	997.39	–
298.15 K, m1 = 0.00698	0.0632	997.46	–
298.15 K, m1 = 0.00753	0.0671	997.5	–
298.15 K, m1 = 0.00905	0.0779	997.61	–
298.15 K, m1 = 0.01006	0.0845	997.68	–
298.15 K, m1 = 0.01266	0.1	997.84	–
298.15 K, m1 = 0.01513	0.11	998	–
298.15 K, m1 = 0.01771	0.117	998.16	–
298.15 K, m1 = 0.01974	0.123	998.29	–
298.15 K, m1 = 0.02301	0.132	998.49	–
298.15 K, m1 = 0.02601	0.14	998.67	–
303.15 K, m1 = 0.00122	–	995.67	–
303.15 K, m1 = 0.00157	0.0164	995.69	60.2
303.15 K, m1 = 0.00191	–	995.71	–
303.15 K, m1 = 0.00201	0.0209	995.72	57.03
303.15 K, m1 = 0.00258	–	995.75	–
303.15 K, m1 = 0.00299	0.0305	995.78	53.96
303.15 K, m1 = 0.00326	–	995.8	–
303.15 K, m1 = 0.00407	0.0402	995.85	49.57
303.15 K, m1 = 0.00429	–	995.87	–
303.15 K, m1 = 0.00507	0.0517	995.92	43.38
303.15 K, m1 = 0.00548	–	995.95	–
303.15 K, m1 = 0.00602	0.0589	995.98	41.31
303.15 K, m1 = 0.00698	0.0694	996.04	38.15
303.15 K, m1 = 0.00753	0.0734	996.08	37.87
303.15 K, m1 = 0.00905	0.0859	996.18	32.2
303.15 K, m1 = 0.01006	0.093	996.25	32.54
303.15 K, m1 = 0.01266	0.117	996.42	32.07
303.15 K, m1 = 0.01513	0.125	996.57	32.43
303.15 K, m1 = 0.01771	0.132	996.72	31.44
303.15 K, m1 = 0.01974	0.138	996.84	31.87
303.15 K, m1 = 0.02301	0.148	997.04	–
303.15 K, m1 = 0.02601	0.156	997.2	32.42
308.15 K, m1 = 0.00122	–	994.05	–
308.15 K, m1 = 0.00157	0.018	994.07	–
308.15 K, m1 = 0.00191	–	994.09	–
308.15 K, m1 = 0.00201	0.0229	994.1	–
308.15 K, m1 = 0.00258	–	994.14	–
308.15 K, m1 = 0.00299	0.0334	994.17	–
308.15 K, m1 = 0.00326	–	994.18	–
308.15 K, m1 = 0.00407	0.0443	994.24	–
308.15 K, m1 = 0.00429	–	994.25	–
308.15 K, m1 = 0.00507	0.0563	994.3	–
308.15 K, m1 = 0.00548	–	994.33	–
308.15 K, m1 = 0.00602	0.0646	994.36	–
308.15 K, m1 = 0.00698	0.0757	994.42	–
308.15 K, m1 = 0.00753	0.0803	994.46	–
308.15 K, m1 = 0.00905	0.0978	994.55	–
308.15 K, m1 = 0.01006	0.107	994.63	–
308.15 K, m1 = 0.01266	0.131	994.78	–
308.15 K, m1 = 0.01513	0.141	994.93	–
308.15 K, m1 = 0.01771	0.148	995.08	–
308.15 K, m1 = 0.01974	0.156	995.2	–
308.15 K, m1 = 0.02301	0.165	995.4	–
308.15 K, m1 = 0.02601	0.174	995.56	–
313.15 K, m1 = 0.00122	–	992.22	–
313.15 K, m1 = 0.00157	0.0197	992.24	–
313.15 K, m1 = 0.00191	–	992.26	–
313.15 K, m1 = 0.00201	0.025	992.27	–
313.15 K, m1 = 0.00258	–	992.3	–
313.15 K, m1 = 0.00299	0.0366	992.33	–
313.15 K, m1 = 0.00326	–	992.35	–
313.15 K, m1 = 0.00407	0.0485	992.4	–
313.15 K, m1 = 0.00429	–	992.42	–
313.15 K, m1 = 0.00507	0.0614	992.46	–
313.15 K, m1 = 0.00548	–	992.49	–
313.15 K, m1 = 0.00602	0.0703	992.52	–
313.15 K, m1 = 0.00698	0.0838	992.58	–
313.15 K, m1 = 0.00753	0.0904	992.62	–
313.15 K, m1 = 0.00905	0.11	992.72	–
313.15 K, m1 = 0.01006	0.122	992.79	–
313.15 K, m1 = 0.01266	0.146	992.94	–
313.15 K, m1 = 0.01513	0.159	993.07	–
313.15 K, m1 = 0.01771	0.171	993.22	–
313.15 K, m1 = 0.01974	0.177	993.33	–
313.15 K, m1 = 0.02301	0.187	993.52	–
313.15 K, m1 = 0.02601	0.196	993.68	–
